Measurements taken from patent US7176224B2, “Oxazolyl-aryloxyacetic acid derivatives and their use as PPAR agonists” (Eli Lilly and Company, priority 2000, dated 2007).
pIC50: −log10 of the molar value. Values belong to the compound of their own block, whether it stands above or below them.

Key:
Hu apoAI transgenic mice = assay: Evaluation of triglyceride and cholesterol levels in hu apoAI transgenic mice; format: in vivo
Description: Five to six week old male mice, transgenic for human apoAI [C57B1/6-tgn(apoa1) 1rub, Jackson Laboratory, Bar Harbor, Me.] were housed five per cage (10″×20″8″ with aspen chip bedding) with food (Purina 5001) and water available at all times. After an acclimation period of 2 weeks, animals were individually identified by ear notches, weighed, and assigned to groups based on body weight. Beginning the following morning, mice were dosed daily by oral gavage for 7 days using a 20 gauge, 1½″ curved disposable feeding needle (Popper & Sons). Treatments were test compounds (30 mg/kg), a positive control (fenofibrate, 100 mg/kg) or vehicle [1% carboxymethylcellulose (w/v)/0.25% Tween80 (w/v); 0.2 ml/mouse]. Prior to termination on day 7, mice were weighed and dosed. Three hours after dosing, animals were anesthetized by inhalation of isoflurane (2–4%; Abbott Laboratories, Chicago, Ill.) and blood obtained via cardiac puncture (0.7–1.0 ml). Whole blood was transferred to serum separator tubes (Vacutainer SST), chilled on ice, and permitted to clot. Serum was obtained after centrifugation at 4° C. and frozen until analysis for triglycerides, total cholesterol, compound levels, and serum lipoprotein profile by fast protein liquid chromatography (FPLC) coupled to an inline detection system. After sacrifice by cervical dislocation, the liver, heart and epididymal fat pads were excised and weighed.
The animals dosed with vehicle had average triglycerides values of 60–80 mg/dl, which were reduced by the positive control fenofibrate (33–58 mg/dl with a mean reduction of 37%). The animals dosed with vehicle had average total serum cholesterol values of 140–180 mg/dl, which were increased by fenofibrate (190–280 mg/dl, with a mean elevation of 41%). […] increased the amount of HDLc (68–96 v-sec with a mean percent increase of 48%).
Glucose was measured colorimetrically using commercially purchased reagents (Sigma #315-500). According to the manufacturers, the procedures were modified from published work (McGowan, M. W., Artiss, J. D., Strandbergh, D. R. & Zak, B. Clin Chem, 20:470–5 (1974) and Keston, A. Specific colorimetric enzymatic analytical reagents for glucose. Abstract of papers 129th Meeting ACS, 31C (1956).); and depend on the release of a mole of hydrogen peroxide for each mole of analyte, coupled with a color reaction first described by Trinder (Trinder, P. Determination of glucose in blood using glucose oxidase with an alternative oxygen acceptor. Ann Clin Biochem, 6:24 (1969)). The absorbance of the dye produced is linearly related to the analyte in the sample. The assays were further modified in our laboratory for use in a 96 well format. Standards (Sigma #339-11, Sigma #16-11, and Sigma #CC0534 for glucose, triglycerides and total cholesterol, respectively), quality control plasma (Sigma # A2034), and samples (2 or 5 μl/well) were measured in duplicate using 200 μl of reagent. An additional aliquot of sample, pipetted to a third well and diluted in 200 μl water, provided a blank for each specimen. Plates were incubated at room temperature (18, 15, and 10 minutes for glucose, triglycerides and total cholesterol, respectively) on a plate shaker (DPC Micormix 5) and absorbance read at 500 nm (glucose and total cholesterol) or 540 nm (triglycerides) on a plate reader (Wallac Victor 1420). Sample absorbances were compared to a standard curve (100–800, 10–500, and 100–400 mg/dl for glucose, triglycerides and total cholesterol, respectively). Values for the quality control sample were always within the expected range and the coefficient of variation for samples was below 10%. All samples from an experiment were assayed at the same time to minimize inter-assay variability.
Serum lipoproteins were separated and cholesterol quantitated with an in-line detection system. Sample was applied to a Superose® 6 HR 10/30 size exclusion column (Amersham Pharmacia Biotech) and eluted with phosphate buffered saline-EDTA at 0.5 ml/min. […]

huPPARγ [1] = assay: Cotransfection assay in CV-1 cells, luciferase reporter; format: cell-based, human; conditions: GAL4 chimeric system, relative to agonist reference molecule
Description: […] binding (ABCD binding) was carried out using SPA technology with PPAR receptors. […] Cotransfection assays were carried out in CV-1 cells. The reporter plasmid contained an acylCoA oxidase (AOX) PPRE and TK promoter upstream of the luciferase reporter cDNA. Appropriate PPARs and RXRα were constitutively expressed using plasmids containing the CMV promoter. […] In order to eliminate such interference, a GAL4 chimeric system was used in which the DNA binding domain of the transfected PPAR was replaced by that of GAL4, and the GAL4 response element was utilized in place of the AOX PPRE. […] Efficacies were determined by computer fit to a concentration-response curve, or in some cases at a single high concentration of agonist (10 μM). For binding or cotransfection studies with receptors other than PPARs, similar assays were carried out using appropriate ligands, receptors, reporter constructs, etc., for that particular receptor.
(§1) These studies were carried out to evaluate the ability of compounds of the invention to bind to and/or activate various nuclear transcription factors, particularly huPPARα (“hu” indicates “human”) and huPPARγ. These studies provide in vitro data concerning efficacy and selectivity of compounds of the invention. Furthermore, binding and cotransfection data for compounds of the invention were compared with corresponding data for marketed compounds that act on either huPPARα or huPPARγ.

huPPARγ [2] = molecular target: T1, huPPARγ (Homo sapiens, UniProt P37231); assay: DNA-dependent binding (ABCD binding), SPA, radioligand displacement; conditions: tritium-labeled PPARγ agonist radioligand
T1 sequence (P37231 1-505): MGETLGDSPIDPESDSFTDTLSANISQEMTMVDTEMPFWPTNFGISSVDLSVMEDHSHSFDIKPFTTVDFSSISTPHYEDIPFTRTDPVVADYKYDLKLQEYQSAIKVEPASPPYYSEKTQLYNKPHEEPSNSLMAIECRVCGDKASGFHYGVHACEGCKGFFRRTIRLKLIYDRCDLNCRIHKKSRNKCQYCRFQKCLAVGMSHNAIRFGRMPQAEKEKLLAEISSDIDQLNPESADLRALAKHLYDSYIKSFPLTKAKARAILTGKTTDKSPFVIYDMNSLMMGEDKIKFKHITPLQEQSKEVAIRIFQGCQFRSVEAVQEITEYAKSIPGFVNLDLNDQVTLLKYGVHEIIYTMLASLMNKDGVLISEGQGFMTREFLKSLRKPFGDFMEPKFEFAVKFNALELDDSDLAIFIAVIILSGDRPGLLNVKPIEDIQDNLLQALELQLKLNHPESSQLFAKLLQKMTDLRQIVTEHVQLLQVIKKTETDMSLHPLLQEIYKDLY
T1 sequence (P19793 1-462 partner): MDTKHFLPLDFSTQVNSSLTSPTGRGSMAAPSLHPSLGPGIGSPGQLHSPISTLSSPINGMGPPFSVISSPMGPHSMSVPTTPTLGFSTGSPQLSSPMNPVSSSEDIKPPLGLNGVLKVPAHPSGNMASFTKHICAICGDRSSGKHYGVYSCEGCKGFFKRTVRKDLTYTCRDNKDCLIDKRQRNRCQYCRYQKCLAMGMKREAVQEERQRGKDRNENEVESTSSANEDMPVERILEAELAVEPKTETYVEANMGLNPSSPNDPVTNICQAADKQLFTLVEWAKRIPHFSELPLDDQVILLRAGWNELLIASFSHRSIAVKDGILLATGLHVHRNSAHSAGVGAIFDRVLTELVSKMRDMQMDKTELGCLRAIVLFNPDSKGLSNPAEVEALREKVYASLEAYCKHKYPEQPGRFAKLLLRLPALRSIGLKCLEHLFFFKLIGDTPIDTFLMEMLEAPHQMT
Description: (§2) […] binding (ABCD binding) was carried out using SPA technology with PPAR receptors. Tritium-labeled PPARα and PPARγ agonists were used as radioligands for generating displacement curves and IC50 values with compounds of the invention. Cotransfection assays were carried out in CV-1 cells. The reporter plasmid contained an acylCoA oxidase (AOX) PPRE and TK promoter upstream of the luciferase reporter cDNA. Appropriate PPARs and RXRα were constitutively expressed using plasmids containing the CMV promoter. […] In order to eliminate such interference, a GAL4 chimeric system was used in which the DNA binding domain of the transfected PPAR was replaced by that of GAL4, and the GAL4 response element was utilized in place of the AOX PPRE. Cotransfection efficacy was determined relative to PPARα agonist and […] reference molecules. Efficacies were determined by computer fit to a concentration-response curve, or in some cases at a single high concentration of agonist (10 μM). For binding or cotransfection studies with receptors other than PPARs, similar assays were carried out using appropriate ligands, receptors, reporter constructs, etc., for that particular receptor.
as §1

huPPARα [3] = molecular target: T2, huPPARα (Homo sapiens, UniProt Q07869); assay: as above; conditions: tritium-labeled PPARα agonist radioligand
T2 sequence (Q07869 1-468): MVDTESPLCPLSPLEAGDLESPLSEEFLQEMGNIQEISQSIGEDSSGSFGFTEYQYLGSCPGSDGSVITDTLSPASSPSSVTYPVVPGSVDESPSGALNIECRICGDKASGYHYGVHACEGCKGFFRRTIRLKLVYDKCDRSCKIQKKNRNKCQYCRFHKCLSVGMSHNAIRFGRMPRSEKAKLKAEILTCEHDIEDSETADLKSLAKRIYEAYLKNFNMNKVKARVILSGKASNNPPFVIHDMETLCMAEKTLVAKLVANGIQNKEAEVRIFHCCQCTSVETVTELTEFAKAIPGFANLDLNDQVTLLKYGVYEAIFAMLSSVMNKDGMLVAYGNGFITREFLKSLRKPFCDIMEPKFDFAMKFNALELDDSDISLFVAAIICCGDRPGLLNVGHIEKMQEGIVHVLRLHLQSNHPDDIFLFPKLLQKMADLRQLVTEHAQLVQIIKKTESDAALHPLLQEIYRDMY
T2 sequence (P19793 1-462 partner): T1 sequence (P19793 1-462 partner)
Description: as §2, §1

huPPARα [4] = assay: Cotransfection assay in CV-1 cells, luciferase reporter; format: cell-based, human; conditions: GAL4 chimeric system, relative to PPARα agonist reference molecule
Description: […] binding (ABCD binding) was carried out using SPA technology with PPAR receptors. Tritium-labeled PPARα and PPARγ agonists were used as radioligands for generating displacement curves and IC50 values with compounds of the invention. Cotransfection assays were carried out in CV-1 cells. The reporter plasmid contained an acylCoA oxidase (AOX) PPRE and TK promoter upstream of the luciferase reporter cDNA. Appropriate PPARs and RXRα were constitutively expressed using plasmids containing the CMV promoter. For PPARα and […], interference by endogenous […] in CV-1 cells was an issue. In order to eliminate such interference, a GAL4 chimeric system was used in which the DNA binding domain of the transfected PPAR was replaced by that of GAL4, and the GAL4 response element was utilized in place of the AOX PPRE. Cotransfection efficacy was determined relative to PPARα agonist and […] reference molecules. Efficacies were determined by computer fit to a concentration-response curve, or in some cases at a single high concentration of agonist (10 μM). For binding or cotransfection studies with receptors other than PPARs, similar assays were carried out using appropriate ligands, receptors, reporter constructs, etc., for that particular receptor.
as §1

[5] = 100 mg/kg oral gavage daily for 7 days, versus vehicle

Structure (SMILES): Cc1oc(-c2cccc(-c3ccsc3)c2)nc1CCOc1ccc(CC(C)(Oc2ccc(C(C)(C)C)cc2)C(=O)O)cc1 (centres unmarked) [Example 19, 2-Methyl-3-(4-{2-[5-methyl-2-(3-thiophen-3-yl-phenyl)-oxazol-4-yl]-ethoxy}-phenyl)-2-(4-tert-butylphenoxy)-propionic acid]
% HDLc Increase (Hu apoAI transgenic mice; 30 mg/kg oral gavage daily for 7 days, serum HDLc FPLC area under the curve, over mice receiving vehicle): 85.3%

pIC50 (huPPARγ [2]): 7.43 | pIC50 (huPPARα [3]): 6.84
Structure (SMILES): Cc1oc(-c2cccc(-c3ccccc3)c2)nc1CCOc1ccc(CC(C)(Oc2ccc3c(c2)OCO3)C(=O)O)cc1 (centres unmarked) [Example 58, 2-(Benzo[1,3]dioxol-5-yloxy)-3-{4-[2-(2-biphenyl-3-yl-5-methyl-oxazol-4-yl)-ethoxy]-phenyl}-2-methyl-propionic acid]
huPPARγ CTF Efficacy (huPPARγ [1]): 101% | huPPARα CTF Efficacy (huPPARα [4]): 48%

Structure (SMILES): CC(C)OC(=O)C(C)(C)Oc1ccc(C(=O)c2ccc(Cl)cc2)cc1 [fenofibrate]
high density lipoprotein cholesterol (HDLc) peak area (Hu apoAI transgenic mice; 100 mg/kg oral gavage daily for 7 days, pooled sera, FPLC, vehicle 47 to 62 v-sec): 68–96 v-sec | average triglycerides values (Hu apoAI transgenic mice; 100 mg/kg oral gavage daily for 7 days, serum, vehicle 60–80 mg/dl): 33 to 58 mg/dL | average total serum cholesterol values (Hu apoAI transgenic mice; 100 mg/kg oral gavage daily for 7 days, vehicle 140–180 mg/dl): 190 to 280 mg/dL | mean elevation of total serum cholesterol (Hu apoAI transgenic mice; [5]): 41% | mean percent increase of HDLc (Hu apoAI transgenic mice; [5]): 48% | mean reduction of triglycerides (Hu apoAI transgenic mice; [5]): 37%
